*1 amine or outer side, *2 acyl side, *3 side chain or, on linkers, in order; H or OH if unused. Where a SMILES comes first, the peptide text is derived from it. [ ]: non-standard residue; d: D form. The star is where a group is joined. X1 = O=C([C@H](CCON=Cc1c(Cl)cncc1Cl)N[*:1])[*:2]; Biotin = O=C1N[C@H]2[C@H](CS[C@H]2CCCCC(=O)*)N1; pY = N[C@@H](Cc1ccc(OP(=O)(O)O)cc1)C(=O)O; Ahx = NCCCCCC(=O)O
Target: VH1 C110S
Type: binding, Variola major
Conditions: pH 6.2

`CC(C)[C@H](NC(=O)CCCCCNC(=O)CCCC[C@@H]1SC[C@@H]2NC(=O)N[C@@H]21)C(=O)N[C@@H](CC(=O)O)C(=O)N[C@@H](C)C(=O)N[C@@H](CC(=O)O)C(=O)N[C@@H](CCC(=O)O)C(=O)N[C@@H](Cc1ccc(OP(=O)(O)O)cc1)C(=O)N[C@@H](CCON=Cc1c(Cl)cncc1Cl)C(N)=O` [Peptide 6f-w202] ({Biotin-Ahx}-VDADE[pY][X1]-NH2) was tested. Which Kd did it give?
The Kd was 73 ± 27 nM.

— publication PMC8132114 (ACS combinatorial science, 2019)
